Test [1] deals with E. coli AG100. Nature of the test: MIC by microdilution, E. coli AG100. It counts as cell-based. The following applies: 18 h at 37 °C, average of three assays; for MIC: Escherichia coli, AG100, without PMBN; for MIC AG100: with PMBN at 1/5 of its MIC. The method in brief:
(§1)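 Broth microdilution in Mueller-Hinton II, inoculum 2 × 10^5 cfu per well, two-fold serial dilutions, 37 °C; kanamycin-supplemented growth for acrAB-/tolC- derivatives. Tested alone or equimolar combinations, with or without PMBN at 51.2 mg/L. MIC in μg/mL, mean of three independent assays.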

In test [2] the test system is E. faecalis EFA 103.214. In words: MIC, E. faecalis EFA 103.214. The test is classed as cell-based. As to conditions: Enterococcus faecalis, EFA103.214, read-out: MIC E. faecalis EFA 103.214. The method in brief: as §1
In test [3] the test system is E. coli AG100A (AcrAB- derivative). In words: MIC by microdilution, E. coli AG100A. As to conditions: for MIC: Escherichia coli, 18 h, read-out: MIC AG100A; for MIC AG100A: with PMBN at 1/5 of its MIC, 18 h at 37 °C, average of three assays. It counts as cell-based. The method in brief: as §1
In test [4] the test system is S. aureus SA113. Nature of the test: MIC, S. aureus SA113. The test is classed as cell-based. As to conditions: Staphylococcus aureus. The method, boiled down: as §1
For test [5], the target named is T1, EcPDF (Escherichia coli, UniProt P0A6K3).
T1 construct: made in house
T1 sequence (P0A6K3 whole entry): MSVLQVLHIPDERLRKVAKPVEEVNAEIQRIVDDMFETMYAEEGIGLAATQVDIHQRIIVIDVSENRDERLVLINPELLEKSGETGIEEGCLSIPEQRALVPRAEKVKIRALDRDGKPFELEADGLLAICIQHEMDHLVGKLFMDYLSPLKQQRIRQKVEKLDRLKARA
In words: PDF inhibition, formate dehydrogenase-coupled spectrophotometric assay (EcPDF). The test is classed as biochemical.

Test [6] concerns B. subtilis 168. In words: MIC, B. subtilis 168. The test is classed as cell-based. As to conditions: Bacillus subtilis. The source says: Two E. coli strains, one B. subtilis strain, one S. aureus strain, one E. faecalis strain, one S. agalactiae strain and three Enterobacter aerogenes strains previously described were used. Briefly, AG100 was an E. coli wild type strain and AG100A its acrAB^- derivative. EA289 was a Kan^s derivative of an E. aerogenes multi-drug resistant (MDR) clinical isolate overexpressing AcrAB-TolC efflux pumps, and EA294 and EA298 its acrAB^- and tolC^- derivatives respectively. Strains were routinely grown at 37 °C on Luria-Bertani (LB) agar or in Mueller-Hinton II broth (MH), supplemented with kanamycine (50 μg.mL^−1) for AG100A, EA294 and EA298.
MIC values of antibiotics were determined by the microdilution method in liquid MH media in microplates in the absence or presence of chemosensitizers/modulators (e.g. PMBN, PAβN), as previously described. Permeabilization, blocking of efflux pumps, and isolates with different levels of porin or efflux expression were used to assess the involvement of the membrane barrier in antibiotic activity.
Susceptibilities were determined in 96-wells microplates with an inoculum of 2 × 10^5 cfu in 200 μL of MH broth containing two-fold serial dilutions of each antibiotics or compounds. Molecules were tested alone or in combination with other molecules in equimolar ratio. MICs were realized in the absence and in the presence of a membrane permeabilizer, the polymyxine B nonapeptide (PMBN) used at 51.2 mg/L (1/5 or 1/10 of its direct MIC previously determined). Actinonin and ciprofloxacin were used as internal antibiotic reference. […] Each test was systematically performed in triplicate. The average of three independent assays is presented in μg/mL in the respective tables.

Test [7] deals with E. aerogenes Ea294, Ea289 derivative AcrAB-. Nature of the test: MIC by microdilution, E. aerogenes Ea294. The test is classed as cell-based, Enterobacter aerogenes. The method, boiled down: as §1
Test [8] concerns the target T2, SaPDF (Streptococcus agalactiae serotype III, UniProt Q8E378, S2A).
T2 construct: the recombinant protein contains all residues of the 204 amino acids mature protein; made in house; host or cells: E. coli Rosetta 2(DE3)pLysS
Nature of the test: biochemical. The following applies: SaPDF KI*app, PDFI pre-incubated with enzyme 10 min at 37 °C, started by 2 mM Fo-Met-Ala-Ser; 40 nM SaPDF.

The target of test [9] is T2, SaPDF. Nature of the test: biochemical. The method, boiled down: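 FDH-coupled NADH formation followed at 340 nm, 37 °C, in 50 mM HEPES-NaOH pH7.5 with 12 mM NAD+, 1 mM NiCl2; enzyme 40 nM SaPDF, 10 nM EcPDF or 100 nM AtPDF1B, substrate Fo-Met-Ala-Ser 1–6 mM. For KI, enzyme started the reaction without pre-incubation; 1/KI taken as slope of v0/vi versus compound concentration.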

The test system of test [10] is E. aerogenes Ea298, Ea289 derivative tolC-. In words: MIC by microdilution, E. aerogenes Ea298. The test is classed as cell-based, Enterobacter aerogenes. The following applies: Klebsiella aerogenes, 18 h, read-out: MIC Ea298. The method, boiled down:
as §1

For test [11], the target named is T3, AtPDF1B (Arabidopsis thaliana, UniProt Q9FUZ2).
T3 construct: made in house
T3 sequence (Q9FUZ2 83-273): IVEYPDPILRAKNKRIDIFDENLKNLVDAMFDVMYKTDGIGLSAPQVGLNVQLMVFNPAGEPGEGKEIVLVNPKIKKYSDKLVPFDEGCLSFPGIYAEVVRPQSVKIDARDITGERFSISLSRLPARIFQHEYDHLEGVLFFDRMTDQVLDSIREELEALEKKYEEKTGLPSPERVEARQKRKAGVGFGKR
In words: PDF inhibition, formate dehydrogenase-coupled spectrophotometric assay (AtPDF1B). It counts as biochemical. As to conditions: no pre-incubation, assay initiated by addition of enzyme; 100 nM AtPDF1B; 37 °C.

In test [12] the target is T3, AtPDF1B. The description is as above. It counts as biochemical. The method, boiled down:
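AtPDF1B activity was followed by coupling deformylation to formate dehydrogenase, which converts NAD to NADH, read at 340 nm at 37 °C. The 200 μL mix held 50 mM HEPES-NaOH pH7.5, 12 mM NAD^+, 4.5 U/mL FDH, 1 mM NiCl2 and 100 nM AtPDF1B prediluted with 0.1 mg/mL BSA. Reactions began with 1–6 mM Fo-Met-Ala-Ser. 1/KI*app was the slope of v0/vi versus compound concentration.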

The subject of test [13] is E. aerogenes Ea289, MDR strain. In words: MIC by microdilution, E. aerogenes Ea289. It counts as cell-based, Enterobacter aerogenes. The method in brief:
as §1

[14] abbreviates: 10 nM EcPDF, 2 mM Fo-Met-Ala-Ser, 10 min pre-incubation at 37 °C, read-out: IC50 EcPDF.
[15] abbreviates: +PMBN at 1/5 of its MIC, average of three assays.
[16] abbreviates: enhancement potency (slow tight-binding).

Read-outs that look alike come from different tables or passages of the source.

T2 sequence (Q8E378 whole entry S2A): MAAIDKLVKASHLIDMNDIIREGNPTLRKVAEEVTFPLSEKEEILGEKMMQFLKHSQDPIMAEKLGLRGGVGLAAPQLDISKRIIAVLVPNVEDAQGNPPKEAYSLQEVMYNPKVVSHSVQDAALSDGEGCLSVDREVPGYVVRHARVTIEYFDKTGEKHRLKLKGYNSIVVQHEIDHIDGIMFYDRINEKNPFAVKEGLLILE

For the compound `CCCCC(CC(=O)NO)c1nc(C(N)=O)co1` (centres unmarked) [AT007], the minimal inhibitory concentration (MIC) in test [1], in test [2], in test [3], in [4] and in [6] was above 64 µg/mL in each case. For the same compound, in [1], the “MIC AG100” value is above 64 µg/mL. The “MIC AG100A” value in test [3] was above 64 µg/mL. The IC50 in [5] (setting [14]) was 0.74 µM.

In the case of `CCCC[C@H](CC(=O)NO)c1nc(C(=O)N[C@H](C(N)=O)C(C)C)co1` [AT010], the minimum inhibitory concentration (MIC) in test [1], in test [2], in [3], in [4] and in test [6] was above 64 µg/mL each time. In test [1], the “MIC AG100” value was above 64 µg/mL. For the same compound, the “MIC AG100A” value in test [3] is above 64 µg/mL. For the same compound, the 50% inhibitory concentration (IC50) in test [5] (setting [14]) was 0.42 µM.

Regarding `CCCC[C@H](CC(=O)NO)c1nc(C(=O)N[C@H](C(=O)OC)C(C)C)co1` [AT009], the MIC in [1], in test [2], in test [3], in test [4] and in [6] was above 64 µg/mL each time. Besides, in [1], the “MIC AG100” value was above 64 µg/mL. In addition, the “MIC AG100A” value in [3] is above 64 µg/mL. In test [5] (setting [14]), the IC50 was found to be 0.33 µM.

Regarding `O=C(C[C@@H](CC1CCCC1)c1nc(Cc2ccc3c(c2)OCO3)no1)NO` [AT020], the minimal inhibitory concentration (MIC) in [1] was above 64 µg/mL; in test [3] it was 16 µg/mL; in test [7] (Klebsiella aerogenes, 18 h, read-out: MIC Ea294) it was 128 µg/mL; in [10] it was 128 µg/mL; in test [13] (Klebsiella aerogenes, 18 h, read-out: MIC Ea289) it was above 128 µg/mL. Further, the “MIC AG100” value in test [1] stood at 8 µg/mL. Moreover, the “MIC AG100A” value in test [3] was determined as 4 µg/mL. In test [7] (setting [15]), the “MIC Ea294” value was found to be 8 µg/mL. Further, the 50% inhibitory concentration (IC50) in [5] worked out at 0.007 ± 0.002 µM; in test [9], 0.012 ± 0.003 µM; in [12] (100 nM AtPDF1B, 2 mM Fo-Met-Ala-Ser, 10 min pre-incubation at 37 °C), 0.119 ± 0.01 µM. Moreover, the Ki in [5] (EcPDF KI*app, PDFI pre-incubated with enzyme 10 min at 37 °C, started by 2 mM Fo-Met-Ala-Ser, 10 nM EcPDF) worked out at 0.0019 ± 0.0002 µM; in [5] (EcPDF KI, no pre-incubation, assay initiated by addition of enzyme, 10 nM EcPDF, 37 °C), 0.08 ± 0.003 µM; in test [8], 0.0085 ± 0.003 µM; in [9] (SaPDF KI, no pre-incubation, assay initiated by addition of enzyme, 40 nM SaPDF, 37 °C) it was 0.063 ± 0.003 µM; in [11], 0.238 ± 0.03 µM; in [12] (PDFI pre-incubated with enzyme 10 min at 37 °C, started by 2 mM Fo-Met-Ala-Ser, 100 nM AtPDF1B, read-out: AtPDF1B KI*app), 0.123 ± 0.005 µM. The “EcPDF KI/KI*app” value in [5] (setting [16]) was 42. Moreover, the “AtPDF1B KI/KI*app” value in test [12] (setting [16]) came to 2. Also, the “MIC Ea289” value in test [13] (setting [15]) is 32 µg/mL.

The values above are taken from article PMC5071857, “A unique peptide deformylase platform to rationally design and challenge novel active compounds” (Scientific Reports, 2016).
